# Laboratory results taken from PubChem BioAssay (NCI).
#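 Test compounds were applied to cells in 96-well plates for 48 hours at 5 doses. GI50 is the concentration that inhibits growth by half. TGI: total growth inhibition.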
# How the values were obtained:
# Experiment in all cases: growth of human tumour cells (NCI), 48 h
# [1] = tested on: OVCAR-8 ovarian
# [2] = tested on: SR leukemia
# [3] = tested on: HCC-2998 colon
# [4] = tested on: TK-10 renal
# [5] = tested on: UACC-257 melanoma
# [6] = tested on: CCRF-CEM leukemia
# [7] = tested on: NCI/ADR-RES ovarian
# [8] = tested on: SK-MEL-5 melanoma
# [9] = tested on: SF-268 CNS
# [10] = tested on: LOX IMVI melanoma
# [11] = tested on: T-47D breast
# [12] = tested on: EKVX NSCLC
# [13] = tested on: MDA-MB-231 breast
# [14] = tested on: NCI-H460 lung
# [15] = tested on: HOP-62 NSCLC
# [16] = tested on: U251 CNS
# [17] = tested on: HL-60(TB) leukemia
# [18] = tested on: RXF 393 renal
# [19] = tested on: K-562 leukemia
# [20] = tested on: SNB-75 CNS
# [21] = tested on: NCI-H522 lung
# [22] = tested on: RPMI-8226 leukemia
# [23] = tested on: DU-145 prostate
# [24] = tested on: CAKI-1 renal
# [25] = tested on: A549 NSCLC
# [26] = tested on: MOLT-4 leukemia
# [27] = tested on: HT29 colon
# [28] = tested on: SK-MEL-2 melanoma
# [29] = tested on: HS 578T breast
# [30] = tested on: SN12C renal
# [31] = tested on: HOP-92 NSCLC
# [32] = tested on: 786-0 renal
# [33] = tested on: SF-295 CNS
# [34] = tested on: SF-539 CNS
# [35] = tested on: PC-3 prostate
# [36] = tested on: OVCAR-3 ovarian
# [37] = tested on: MCF7 breast
# [38] = tested on: SW-620 colon
# [39] = tested on: NCI-H226 lung
# [40] = tested on: NCI-H23 lung
# [41] = tested on: UACC-62 melanoma
# [42] = tested on: BT-549 breast
# [43] = tested on: MDA-MB-435
# [44] = tested on: OVCAR-5 ovarian
# [45] = tested on: M14 melanoma
# [46] = tested on: UO-31 renal
# [47] = tested on: A498 renal
# [48] = tested on: IGROV1 ovarian
# [49] = tested on: HCT-15 colon
# [50] = tested on: ACHN renal
# [51] = tested on: KM12 colon
smiles,measurement,setting,value
COC(=O)/C=C1/SC(=Nc2ccc(C(F)(F)F)cc2)N(CCc2c[nH]c3ccc(O)cc23)C1=O,GI50,[1],1.62 µM
same,TGI,[1],6.04 µM
same,GI50,[2],0.416 µM
same,TGI,[2],5.25 µM
same,GI50,[3],1.94 µM
same,TGI,[3],3.56 µM
same,GI50,[4],2.25 µM
same,TGI,[4],5.76 µM
same,GI50,[5],1.94 µM
same,TGI,[5],5.17 µM
same,GI50,[6],0.569 µM
same,TGI,[6],6.69 µM
same,GI50,[7],2.16 µM
same,TGI,[7],8.96 µM
same,GI50,[8],1.86 µM
same,TGI,[8],3.99 µM
same,GI50,[9],1.69 µM
same,TGI,[9],5.36 µM
same,GI50,[10],1.25 µM
same,TGI,[10],2.68 µM
same,GI50,[11],2.07 µM
same,TGI,[11],9.64 µM
same,GI50,[12],3.2 µM
same,TGI,[12],> 100 µM
same,GI50,[13],1.91 µM
same,TGI,[13],4.67 µM
same,GI50,[14],1.87 µM
same,TGI,[14],3.79 µM
same,GI50,[15],1.75 µM
same,TGI,[15],3.85 µM
same,GI50,[16],1.46 µM
same,TGI,[16],3.05 µM
same,GI50,[17],1.57 µM
same,TGI,[17],6.65 µM
same,GI50,[18],1.16 µM
same,TGI,[18],2.59 µM
same,GI50,[19],1.55 µM
same,TGI,[19],> 100 µM
same,GI50,[20],2.27 µM
same,TGI,[20],9.68 µM
same,GI50,[21],1.5 µM
same,TGI,[21],3.25 µM
same,GI50,[22],0.722 µM
same,TGI,[22],3.26 µM
same,GI50,[23],2.21 µM
same,TGI,[23],> 100 µM
same,GI50,[24],2.71 µM
same,TGI,[24],> 100 µM
same,GI50,[25],3.05 µM
same,TGI,[25],> 100 µM
same,GI50,[26],0.349 µM
same,TGI,[26],10.1 µM
same,GI50,[27],1.75 µM
same,TGI,[27],3.43 µM
same,GI50,[28],1.52 µM
same,TGI,[28],3.22 µM
same,GI50,[29],1.87 µM
same,TGI,[29],5.78 µM
O=C1C=CC(=O)C(c2cc(-c3ccc(Cl)cc3)nn2-c2ccccc2)=C1,GI50,[1],40.5 µM
same,TGI,[1],> 100 µM
same,GI50,[2],34.4 µM
same,TGI,[2],> 100 µM
same,GI50,[30],23.5 µM
same,TGI,[30],46.9 µM
same,GI50,[31],23.5 µM
same,TGI,[31],67.2 µM
same,GI50,[3],18.8 µM
same,TGI,[3],34.4 µM
same,GI50,[32],16.9 µM
same,TGI,[32],36.9 µM
same,GI50,[4],19.3 µM
same,TGI,[4],45 µM
same,GI50,[5],29.7 µM
same,TGI,[5],71.3 µM
same,GI50,[33],29.3 µM
same,TGI,[33],66.3 µM
same,GI50,[6],11.7 µM
same,TGI,[6],81.8 µM
same,GI50,[34],27.1 µM
same,TGI,[34],51.1 µM
same,GI50,[7],23.4 µM
same,TGI,[7],54.7 µM
same,GI50,[8],18.3 µM
same,TGI,[8],39 µM
same,GI50,[35],17.4 µM
same,TGI,[35],41.6 µM
same,GI50,[9],21 µM
same,TGI,[9],50 µM
same,GI50,[36],24.8 µM
same,TGI,[36],54.6 µM
same,GI50,[12],41.6 µM
same,TGI,[12],> 100 µM
same,GI50,[37],18.8 µM
same,TGI,[37],> 100 µM
same,GI50,[38],32.9 µM
same,TGI,[38],> 100 µM
same,GI50,[13],12.2 µM
same,TGI,[13],29 µM
same,GI50,[39],16.9 µM
same,TGI,[39],59.6 µM
same,GI50,[40],17.5 µM
same,TGI,[40],42.9 µM
same,GI50,[41],16.6 µM
same,TGI,[41],30.7 µM
same,GI50,[14],32.2 µM
same,TGI,[14],> 100 µM
same,GI50,[42],38 µM
same,TGI,[42],99.6 µM
same,GI50,[17],36.2 µM
same,TGI,[17],> 100 µM
same,GI50,[19],31.1 µM
same,TGI,[19],> 100 µM
same,GI50,[43],20.5 µM
same,TGI,[43],46 µM
same,GI50,[21],25.9 µM
same,TGI,[21],71.7 µM
same,GI50,[44],27.2 µM
same,TGI,[44],72.1 µM
same,GI50,[22],16.1 µM
same,TGI,[22],41 µM
same,GI50,[23],25.4 µM
same,TGI,[23],91.1 µM
same,GI50,[45],16.9 µM
same,TGI,[45],35.9 µM
same,GI50,[24],25.8 µM
same,TGI,[24],53.5 µM
same,GI50,[46],38.1 µM
same,TGI,[46],> 100 µM
same,GI50,[25],21.9 µM
same,TGI,[25],55.7 µM
same,GI50,[26],37.4 µM
same,TGI,[26],> 100 µM
same,GI50,[47],10.7 µM
same,TGI,[47],48.9 µM
same,GI50,[28],51.3 µM
same,TGI,[28],> 100 µM
same,GI50,[48],35.8 µM
same,TGI,[48],> 100 µM
same,GI50,[49],30.4 µM
same,TGI,[49],> 100 µM
same,GI50,[50],20.6 µM
same,TGI,[50],41.8 µM
same,GI50,[51],19 µM
same,TGI,[51],44.3 µM
same,GI50,[29],23.7 µM
same,TGI,[29],86.3 µM
